We go through one compound from patent publication US8367365B2, “Method for determining carbohydrate and kit for determining carbohydrate” (priority 2008, dated 2013).

Like-named read-outs stand apart in the source and are kept apart here.

The subject of this series is porcine small intestinal mucosal disaccharidase (suspension of porcine small intestinal mucosal brush border membrane). The format is in vitro ADME. The conditions noted are these: porcine small intestine-derived disaccharidase added to the enzyme reaction system, HPLC.

Source text: In the method for determining a carbohydrate according to the embodiment of the present invention and the method for determining a carbohydrate according to Examples described below, a suspension of porcine small intestinal mucosal brush border membrane is used as the animal-derived low-molecular-weight carbohydrate digestive enzyme.

`OC[C@H]1O[C@@](CO)(O[C@H]2O[C@H](CO)[C@@H](O)[C@H](O)[C@H]2O)[C@@H](O)[C@@H]1O` [sucrose]: the “Digestion by porcine small intestinal mucosal disaccharidases (result in words)” value is listed as “almost completely digested”. The “Digestion by porcine small intestinal mucosal disaccharidases (result in words)” value (listed as Sucrose) is “completely digested”.
